Test results as given in ChEMBL document CHEMBL5725790, “Compositions and methods for the production of pyrimidine and pyridine compounds with BTK inhibitory activity” (2017).

Molecular target: Tyrosine-protein kinase BTK (Homo sapiens, UniProt Q06187)
Experiment: Enzyme Assay: The following describes a microfluidic, off-chip mobility shift kinase assay used to measure inherent potency of compounds against BTK enzyme. Compounds described by embodiments of the present invention were assayed using this protocol and the data from the same is recorded in Table 2 within the column labeled: Time Dependent BTK Enzyme Assay IC50. […] Stopped reactions were monitored at −2 PSI, −3000 V/−700 V in a LabChip 3000 plate reader from Caliper Life Sciences, a PerkinElmer Company (Hopkinton, Mass.), and the activity was measured by off-chip mobility shift assay measuring the charge/mass difference between substrate and product resulting from peptide phosphorylation. IC50 and efficacy were determined by plotting log [Inhibitor] vs. % Activity in GeneData Screener (Basel, Switzerland). Compounds described by embodiments of the present invention were assayed using this protocol and the data from the same is recorded in Table 2 within the column labeled: Time Dependent […] BTK Enzyme Assay IC50.

Sequence of Tyrosine-protein kinase BTK (Q06187 whole entry): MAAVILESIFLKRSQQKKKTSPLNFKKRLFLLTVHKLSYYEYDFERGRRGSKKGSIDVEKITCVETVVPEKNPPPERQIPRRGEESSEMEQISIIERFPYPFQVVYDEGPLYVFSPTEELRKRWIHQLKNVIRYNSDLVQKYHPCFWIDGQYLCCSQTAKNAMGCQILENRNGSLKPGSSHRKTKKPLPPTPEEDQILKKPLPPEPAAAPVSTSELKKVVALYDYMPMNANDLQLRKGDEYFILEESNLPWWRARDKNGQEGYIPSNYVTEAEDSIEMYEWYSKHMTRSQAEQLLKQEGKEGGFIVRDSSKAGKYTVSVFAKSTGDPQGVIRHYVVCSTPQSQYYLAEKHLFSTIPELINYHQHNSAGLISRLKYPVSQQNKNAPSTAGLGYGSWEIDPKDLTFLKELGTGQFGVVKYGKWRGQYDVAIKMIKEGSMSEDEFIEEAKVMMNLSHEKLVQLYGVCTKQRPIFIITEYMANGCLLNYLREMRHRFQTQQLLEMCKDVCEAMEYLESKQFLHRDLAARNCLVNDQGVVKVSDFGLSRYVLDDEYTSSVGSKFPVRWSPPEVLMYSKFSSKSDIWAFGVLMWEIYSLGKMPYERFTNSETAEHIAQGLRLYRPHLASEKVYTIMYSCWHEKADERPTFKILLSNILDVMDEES

Structure (SMILES) | IC50 [µM]
C=CC(=O)Nc1cccc(Oc2ncnc(N)c2-c2cnn(Cc3cccc(S(C)(=O)=O)c3)c2)c1 | < 1
Nc1ncnc(NC2CC3(C2)CN(S(=O)(=O)CCCl)C3)c1-c1ccc(Oc2ccccc2)cc1 | < 0.1
CCC(=O)Nc1cccc(Oc2ccncc2-c2ccc(Oc3ccccc3)cc2)c1 | > 1
N#CC1(C(=O)Nc2cccc(-c3c(N)ncnc3Oc3ccc(Oc4ccccc4)cc3)c2)CC1 | > 1

Other lines, results leading:

IC50 [µM] | Structure (SMILES)
> 1 | CCC(=O)Nc1cccc(Oc2ccnc(C(N)=O)c2-c2ccc(Oc3ccccc3)cc2)c1
< 0.1 | C=CC(=O)Nc1cccc(Oc2ncnc(N)c2-c2ccc(Oc3ccccc3)cc2)c1F
< 1 | C=CC(=O)Nc1cncc(Oc2ncnc(N)c2-c2ccc(Oc3ccc(C#N)cc3)cc2)c1
> 1 | C=CC(=O)N1CC2(CC(Nc3ncnc(N)c3-c3cnn(Cc4ccncc4)c3)C2)C1
